From article PMC6009892, “A novel series of pyrazole-platinum(II) complexes as potential anti-cancer agents that induce cell cycle arrest and apoptosis in breast cancer cells” (Journal of Enzyme Inhibition and Medicinal Chemistry, 2018) come the findings set out here.

Type in all cases: cell-based, human
Series [1] concerns MDA-MB-231 breast cancer cells. Description: Mitochondrial membrane potential JC-1, MDA-MB-231. To be noted: MDA-MB-231, 20 μM, 24 h; untreated 5.8%. On the procedure:
(§1) Disruption of the MMP was assessed using the lipophilic cationic probe 5,5′,6,6′-tetrachloro-1,1′,3,3′-tetraethylbenzimidazolcarbocyanine iodide (JC-1 MitoScreen kit; BD Biosciences Systems, San Jose, CA), as described previously. Briefly, unfixed cells were washed and re-suspended in PBS supplemented with 10 µg/ml of JC-1. Cells were then incubated for 15 min at room temperature in the dark, washed, and re-suspended in PBS for immediate BD FACSCanto II flow cytometry analysis. The percentage of cells with disrupted MMP was calculated using FACSDiva software (both from BD Biosciences Systems, San Jose, CA).

Series [2] relates to MCF-7 breast cancer cells. The series can be described thus: Cell cycle analysis by flow cytometry (PI), MCF-7. To be noted: breast cancer cells (MCF-7), 20 μM, 24 h, versus control. As to the method:
Distribution of cell cycle phases was analysed by flow cytometry. Briefly, MCF-7 and MDA-MB-231 cells were seeded into six-well plates at a density of 2.5 × 10^5 cells per well and treated with 20 μM of PtPz1–PtPz6 for 24 h. After incubation, the cells were harvested and then fixed with 1 ml of 70% ethanol and kept overnight at −20 °C. Before analysis, the cells were re-suspended in PBS, treated with 50 μg/ml of DNase-free RNase A Solution (Promega), and stained with 100 μg/ml of PI. The FACSCanto II flow cytometer (BD Biosciences Systems, San Jose, CA) was used to read the fluorescence.

Series [3] relates to MCF-7 breast cancer cells. Description: MTT cell viability assay, MCF-7. As to the method: MCF-7, MDA-MB-231 (both human breast cancer cell lines), and fibroblast cells were obtained from American Type Culture Collection (ATCC, Manassas, VA, USA). DMEM and FBS used in a cell culture were from Gibco (USA). Glutamine, penicillin, and streptomycin were obtained from Quality Biologicals Inc. (USA). DMEM media was blended with 50 units/ml of penicillin, 50 μg/ml of streptomycin, 10% of FBS. All cell lines were cultured in 5% CO2 and fully humidified at 37 °C. Cells were cultured in Costar flasks and sub-confluent cells were detached with 0.05% trypsin and 0.02% ethylenediaminetetraacetic acid in calcium-free phosphate-buffered saline (PBS), counted in hemocytometers, and plated at 5 × 10^5 cells/well of six-well plates (Thermo Scientific, New York, NY, USA) in 2 ml of growth medium (DMEM without phenol red with 10% CPSR1). Cells reached about 80% of confluency at day 2, and in most cases such cells were used for the assays.
The viability of cultured cells was decided through assaying the reduction of MTT to formazan. In brief, MCF-7, MDA-MB-231, and fibroblast cells line were seeded at an initial density of 1 × 10^5 cells per well. Then, the cells were incubated at 37 °C for 24 h. Subsequently, cultured cells were treated with a medium containing concentrations (5, 10, 20, 30, 40, and 50 μM) of PtPz1–PtPz6 for 24 h and 48 h. After the incubation period, MTT was added into all wells in the final concentration of 0.5 mg/ml. After that, the cells were incubated at 37 °C for 4 h. Then, by removing the medium, 200 μl of DMSO was added to all wells. As a result, insoluble formazan was dissolved in DMSO (0.5%). At 570 nm (630 nm as a reference), the absorbance was measured in an Evolution 201 reader (Thermo Scientific, Waltham, MA).
(Formazan colour is commonly taken as a measure of viable cells.)

Series [4] relates to MCF-7 breast cancer cells. Description: DNA fragmentation TUNEL assay, MCF-7. To be noted: MCF-7, 20 μM, 24 h; control 4.0%. As to the method: DNA fragmentation associated with apoptosis was examined by the terminal deoxynucleotidyltransferase (TdT)- mediated dUTP nick end labeling (TUNEL) method using a commercial assay kit (APO-Direct Kit; BD Pharmingen, San Diego, CA). After treatment, the cells were fixed with 1% paraformaldehyde in PBS (4°C, 30 min), washed in PBS, and permeabilised with ice-cold 70% ethanol. The APO-Direct Kit TUNEL assay was performed as described by the manufacturer. Briefly, the fixed cells were washed twice using the kit wash buffer, and after centrifugation the supernatant was discarded. The DNA labeling solution (containing TdT enzyme and FITC-dUTP) was added to the cell pellet, and the re-suspended mixture was incubated for 1 h at 37°C with occasional shaking. At the end of incubation time, rinse buffer was added, and after centrifugation the supernatant was discarded. We repeated the cell rinsing with rinse buffer, and then suspended the cell pellet in PI/RNase staining buffer. Cells were incubated at room temperature for 30 min and immediately analysed in a BD FACSCanto II flow cytometer. In total, 10,000 events were collected per test sample. The results were analysed with FACSDiva software (both from BD Biosciences Systems, San Jose, CA). The percentage of cells with distinctive apoptotic DNA strand breaks and distinguished by green fluorescent emission was calculated.

The subject of series [5] is MCF-7 breast cancer cells. Description: Mitochondrial membrane potential JC-1, MCF-7. The note with it: MCF-7, 20 μM, 24 h; untreated 7.4%. As to the method:
as §1

The test system of series [6] is MCF-7 breast cancer cells. Description: Annexin V-FITC/PI flow cytometry, MCF-7. The note with it: MCF-7, 20 μM, 24 h; for percent of cells with early and late apoptosis: control 8.5%. On the procedure:
(§2) To characterise the mode of cell death induced by PtPz1–PtPz6, a flow cytometry analysis was performed using Apoptosis Detection Kit II (BD Pharmingen, San Diego, CA), according to the manufacturer’s instructions. Cells (10000 cells measured) were analysed in a flow cytometer (BD FACSCanto II flow cytometer, San Jose, CA). Annexin V bound with high affinity to phosphatidylserine and thus could be used to identify cells in all stages of the programmed cell death. Propidium iodide (PI) stained cells with a disrupted cell membrane, and it could be used to identify late apoptotic and dead cells. Cells cultured in a drug-free medium were used as controls. […] Results were analysed with FACSDiva software (BD Biosciences Systems, San Jose, CA).
(In general: In flow cytometry, cells or beads pass a laser one at a time.)

Series [7] relates to MDA-MB-231 breast cancer cells. Description: Annexin V-FITC/PI flow cytometry, MDA-MB-231. The note with it: MDA-MB-231, 20 μM, 24 h; for percent of cells with early and late apoptosis: control 7.1%. As to the method:
as §2

Where [8] appears, read: MCF-7, 24 h incubation, 5-50 μM, read-out: IC50 (cell viability, MTT).
[9] abbreviates: MCF-7, 48 h incubation, 5-50 μM, read-out: IC50 (cell viability, MTT).

Structures are written as SMILES. Where two headings read alike, the source gives them in different places.

Usually IC50 stands for the concentration needed to halve the response being measured. In the case of `Cc1cc(C)[n+]([Pt-2]2([n+]3c(C)cc(C)n3CO)[N](c3ccc(C(=N)N)cc3)N=[N+](c3ccc(C(=N)N)cc3)[Pt-2]([n+]3c(C)cc(C)n3CO)([n+]3c(C)cc(C)n3CO)[N](c3ccc(C(=N)N)cc3)N=[N+]2c2ccc(C(=N)N)cc2)n1CO.Cl.Cl.Cl.Cl.O.O` [PtPz1, [Pt2(N-hydroxymethyl-3,5-dimethylpyrazole)4(berenil)2]·4HCl·2H2O], the “percent of cells with decrease ΔΨm” value in series [1] stood at 90.7%; in series [5], 91.7%. Also, the “accumulation of cells in G2/M phase” value in series [2] was 2.0 fold. Further, the IC50 in series [3] (setting [8]) came out at 17 ± 2 µM; in series [3] (setting [9]), 11 ± 1 µM. Further, the “percent of TUNEL positive cells” value in series [4] was determined as 55.7%.
On to `Cc1cc(C)[n+]([Pt-2]2([n+]3[nH]c(C)cc3C)[N](c3ccc(C(=N)N)cc3)N=[N+](c3ccc(C(=N)N)cc3)[Pt-2]([n+]3[nH]c(C)cc3C)([n+]3[nH]c(C)cc3C)[N](c3ccc(C(=N)N)cc3)N=[N+]2c2ccc(C(=N)N)cc2)[nH]1.Cl.Cl.Cl.Cl.O.O` [PtPz2, [Pt2(3,5-dimethylpyrazole)4(berenil)2]·4HCl·2H2O], for which the “accumulation of cells in G2/M phase” value in series [2] came out at 2.0 fold. Moreover, the figures for the IC50 in series [3] (setting [8]) and in series [3] (setting [9]) were 20 ± 2 µM and 13 ± 2 µM, respectively. Besides, in series [4], the “percent of TUNEL positive cells” value is given as 47.5%. Moreover, in series [5], the “percent of cells with decrease ΔΨm” value worked out at 90.0%.
For `Cc1c[nH][n+]([Pt-2]2([n+]3[nH]cc(C)c3C)[N](c3ccc(C(=N)N)cc3)N=[N+](c3ccc(C(=N)N)cc3)[Pt-2]([n+]3[nH]cc(C)c3C)([n+]3[nH]cc(C)c3C)[N](c3ccc(C(=N)N)cc3)N=[N+]2c2ccc(C(=N)N)cc2)c1C.Cl.Cl.Cl.Cl.O.O` [PtPz3, [Pt2(3,4-dimethylpyrazole)4(berenil)2]·4HCl·2H2O], in that order: 2.0 fold, 23 ± 1 µM, 18 ± 1 µM, 46.5% and 86.2%.
For the compound `Cc1ccn[nH]1.Cc1ccn[nH]1.Cc1ccn[nH]1.Cc1ccn[nH]1.Cl.Cl.Cl.Cl.N=C(N)c1ccc(N=N[N]([Pt])c2ccc(C(=N)N)cc2)cc1.N=C(N)c1ccc(N=N[N]([Pt])c2ccc(C(=N)N)cc2)cc1.O.O` [PtPz5, [Pt2(5-methylpyrazole)4(berenil)2]·4HCl·2H2O], the half-maximal inhibitory concentration (IC50) in series [3] (setting [8]) was found to be 28 ± 2 µM; in series [3] (setting [9]), 22 ± 2 µM. Moreover, the “percent of TUNEL positive cells” value in series [4] is 32.1%.
In the case of `CCn1ccc[n+]1[Pt-2]1([n+]2cccn2CC)[N](c2ccc(C(=N)N)cc2)N=[N+](c2ccc(C(=N)N)cc2)[Pt-2]([n+]2cccn2CC)([n+]2cccn2CC)[N](c2ccc(C(=N)N)cc2)N=[N+]1c1ccc(C(=N)N)cc1.Cl.Cl.Cl.Cl.O.O` [PtPz6, [Pt2(N-ethylpyrazole)4(berenil)2]·4HCl·2H2O], the entries for the “percent of cells with early and late apoptosis” value in series [6] and in series [7] were 17.2% and 18.6%, respectively. Moreover, the values for the viable cells in series [6] (control 89.7%) and in series [7] (control 91.6%) were 80.9% and 79.4%, respectively. For the same compound, the IC50 in series [3] (setting [8]) is above 50 µM; in series [3] (setting [9]) it was 48 ± 2 µM. In addition, the “percent of TUNEL positive cells” value in series [4] stood at 14.2%.
Take `N.N.[Cl][Pt][Cl]` [cisplatin, reference compound]: the “percent of cells with early and late apoptosis” value amounted to 10.4% in series [6] and 10.1% in series [7]. Moreover, the IC50 in series [3] (setting [8]) is above 50 µM; in series [3] (setting [9]) it was above 50 µM; in series [3] (read-out: IC50 (additional test for cisplatin), MCF-7, 24 h, additional test in concentrations allowing to determine IC50) it was 93 ± 2 µM; in series [3] (read-out: IC50 (additional test for cisplatin), MCF-7, 48 h, additional test in concentrations allowing to determine IC50) it was 78 ± 1 µM. Also, the “percent of TUNEL positive cells” value in series [4] is listed as 10.9%.
